From paper PMC4865820, “Branched Peptide, B2088, Disrupts the Supramolecular Organization of Lipopolysaccharides and Sensitizes the Gram-negative Bacteria” (Scientific Reports, 2016)

Legend:
P. aeruginosa DR4877/07 [1] = test: microbe, parasite or virus in culture; conditions: for MIC: Pseudomonas aeruginosa, DR4877/07, 24 h, read-out: MIC of antibiotics
Procedure: MIC of each peptide was determined using the microdilution method in a 96 well microtitre plates (SPL Life Sciences Co., Ltd, Korea). Two-fold serial dilutions of each peptide in Mueller-Hinton Broth (MHB) was prepared from a 1 mg/ml stock solution of the peptide in the same broth, to obtain a final concentration in the range of 0.0976–50 μg/ml in each well. Bacterial suspensions (P. aeruginosa ATCC 27853, P. aeruginosa 4877, P. aeruginosa 23155, K. pneumoniae ATCC 10031 and K. pneumoniae 4299) were prepared by suspending the overnight cultured bacteria in saline and adjusting the inoculum to ~10^8 colony forming units (CFU) per ml. A further 150-fold dilution was then prepared in MHB to achieve a final cell density of 10^5–10^6 CFU/ml. In each well, 100 μl of inoculum was mixed with the equal volume of peptides at their 2× concentration. Positive and negative controls contained 200 μl of inoculum (without any peptide) and broth alone (no peptide/inoculum) respectively. Another negative control in which MHB containing 200 μl of peptide alone in its highest concentration tested (50 μg/ml) was also included to ensure that the optical density measured in the test wells was not due to turbidity of the peptides in solution. The 96 well polystyrene plates were then incubated at 37 °C for 24 h and the optical density at 600 nm (OD600) was measured every 30 min continuously using a TECAN microplate reader (TECAN Infinite 200, Austria).

P. aeruginosa DR4877/07 [2] = format: cell-based; conditions: for FICI of B2088-antibiotic combination: lowest FICI reported, two independent duplicates
Procedure: The synergism between peptides with conventional antibiotics was evaluated using checkerboard assays. For a comparison polymyxin B (PMB) was also tested against each antibiotic. From their stock solutions, two-fold dilutions of each antibiotic and peptide to 1× MIC were prepared in MHB. 50 μl of each peptide concentration was added into the wells of a 96-well polystyrene plates (SPL Life Sciences Co. Ltd, Korea) in a horizontal orientation and the same volume of each antibiotic concentration were then added in a vertical orientation. Bacterial suspensions were prepared in MHB to yield final cell density of ~10^6 CFU/ml and 100 μl of bacterial suspension was mixed with each peptide-antibiotic combinations. This procedure was repeated for wells containing 200 μl of peptide alone and 200 μl of antibiotic alone in various concentrations. The positive and negative controls contained 200 μl of inoculum and MHB alone respectively. The plates were incubated at 37 °C for 24 hours and the optical density at 600 nm (OD600) was monitored as before. Fractional inhibitory concentration index (FICI) for all antibiotic- peptide combinations was calculated through the summation of (MIC of peptide in the combination/ MIC of peptide alone) and (MIC of antibiotics in combination/MIC of antibiotic alone). The experiments were performed in two independent duplicates and the combinations that gave the lowest FICI values was reported.

[3] = tested on: LPS (E. coli serotype 055:B5); test: BODIPY TR cadaverine (BC) displacement assay with LPS; format: binding
Text: To investigate the interaction of B2088 with LPS, we performed the BODIPY TR cadaverine (BC) displacement assay reported by Wood et al.[22]. The probe binds to the lipid A part of the LPS with moderate affinity and can be displaced by putative LPS-binding molecules. The method was used to probe the affinity of polycationic molecules and LPS binding proteins. First, we determined the affinity of polymyxin B (PMB), a lipopeptide cyclic antibiotic which has a high affinity for LPS. […] Figure 1a,b show the concentration-dependent displacement of LPS/lipid A-bound BC upon addition of B2088. […] To confirm the importance of branching, we determined the BC50 for a linear retrodimer having the amino acid sequence, […] (Fig. 1d). The determined value was 2-fold higher (3.9 ± 0.1 μM) than that of B2088, confirming a weaker affinity of the linear peptide.
The BC displacement assay was used to determine the ability of each peptide to bind to LPS. The florescent probe, BODIPY TR cadaverine (BC) was purchased from Molecular Probes/ Invitrogen (USA). A stock solution containing 1 mg/ml of LPS (E. coli serotype 055:B5) was prepared in dimethyl sulfoxide (DMSO) and another stock solution containing 1 mg/ml of BC dye was prepared in 5 mM HEPES buffer (pH 7.4). The optimum saturation concentration of BC:LPS ratio was standardized following the protocol provided by Wood et al. (22). From the BC stock, 240 μl was mixed with 500 μl from the LPS stock solution in 5 mM HEPES buffer (pH 7.4) to prepare 20 ml of BC:LPS mixture. Two-fold serial dilutions of each peptide in 5 mM HEPES buffer (pH 7.4) was prepared from their 1 mg/ml stock solutions to obtain a final range of 0.02–25.6 μM. The BC:LPS mixture was added to 100 μl of each peptide congener in a 1:1 ratio in each well of a 96-well black Costar™ polystyrene microtitre plate (Corning Incorporated, NY, USA). The maximum fluorescence intensity (Fmax) was determined using a mixture containing 100 μl PMB (50 μg/ml) and 100 μl BC:LPS solution, as PMB is considered the ‘gold standard’ for LPS-sequestering agents. The minimum fluorescence intensity (F0) was measured using 200 μl of BC:LPS mixture to determine the background noise for this experiment. Fluorescence measurements for each peptide (F) were determined using a microplate reader (Model: TECAN Infinite 200, Austria) with excitation and emission wavelengths set at 580 nm and 620 nm respectively. The percentage of BC displacement was then calculated using the formula: […]
The experiments were performed in duplicates and the effective concentration required for 50% displacement of BC dye (ED50) from LPS with respect to PMB was determined by curve fitting using Graphpad Prism (CA, USA). A higher ED50 value for the peptide indicates a lower affinity for LPS.

[4] = MIC of B2088 6.25 μg/ml, MHB, ~10^6 CFU/ml, 37 °C, 24 h

MIC (P. aeruginosa DR4877/07 [1]) [µg/mL] | MIC of antibiotics in the presence of ½× sub-MIC of B2088 (P. aeruginosa DR4877/07 [2]; [4]) [µg/mL] | MIC of antibiotics in the presence of ¼× sub-MIC of B2088 (P. aeruginosa DR4877/07 [2]; [4]) [µg/mL] | Compound | FICI of B2088-antibiotic combination (P. aeruginosa DR4877/07 [2]) | also measured
12.5 | – | – | O=C(O)c1cn(C2CC2)c2cc(N3CCNCC3)c(F)cc2c1=O [Ciprofloxacin] | – | –
100 | 50 | – | CC[C@H]1OC(=O)[C@H](C)[C@@H](O[C@H]2C[C@@](C)(OC)[C@@H](O)[C@H](C)O2)[C@H](C)[C@@H](O[C@@H]2O[C@H](C)C[C@H](N(C)C)[C@H]2O)[C@](C)(O)C[C@@H](C)C(=O)[C@H](C)[C@@H](O)[C@]1(C)O [Erythromycin, reference compound] | 1.0 | –
0.78 | 0.0975 | 0.195 | C[C@@H](O)[C@H]1C(=O)N2C(C(=O)O)=C(SCCN=CN)C[C@H]12 [Imipenem, reference compound] | – | –
50 | 12.5 | – | C[C@H]1COc2c(N3CCN(C)CC3)c(F)cc3c(=O)c(C(=O)O)cn1c23 [Levofloxacin, reference compound] | 0.75 | –
3200 | 400 | – | CCn1cc(C(=O)O)c(=O)c2ccc(C)nc21 [Nalidixic acid, reference compound] | 0.63 | FICI of polymyxin B-antibiotic combination (P. aeruginosa DR4877/07 [2]): 1.0
200 | 50 | 100 | [H]/N=C(/N)N[C@H]1[C@H](O)[C@@H](O)[C@H](O[C@@H]2O[C@@H](C)[C@](O)(C=O)[C@H]2O[C@@H]2O[C@@H](CO)[C@H](O)[C@@H](O)[C@@H]2NC)[C@@H](N/C(N)=N\[H])[C@@H]1O [Streptomycin, reference compound] | 0.75 | MIC of antibiotics in the presence of ⅛× sub-MIC of B2088 (P. aeruginosa DR4877/07 [2]; [4]): 100 µg/mL
– | – | – | RGRKVVRRKKRRVVKRGR [linear retrodimer] | – | FICI with chloramphenicol (P. aeruginosa DR4877/07 [2]; additive effect): 1; FICI with gatifloxacin (P. aeruginosa DR4877/07 [2]; additive effect): 1; FICI with tobramycin (P. aeruginosa DR4877/07 [2]; additive effect): 1; ED50 (50% displacement of BC dye from LPS; also called BC50) ([3]; 5 mM HEPES pH 7.4, fluorescence ex 580/em 620 nm, with respect to PMB, duplicates): 3.9 ± 0.1 µM; BC50 fold higher than that of B2088 ([3]; LPS-bound BC): 2 fold

Compound | MIC (P. aeruginosa DR4877/07 [1]) [µg/mL] | MIC of antibiotics in the presence of ½× sub-MIC of B2088 (P. aeruginosa DR4877/07 [2]; [4]) [µg/mL] | MIC of antibiotics in the presence of ¼× sub-MIC of B2088 (P. aeruginosa DR4877/07 [2]; [4]) [µg/mL] | FICI of B2088-antibiotic combination (P. aeruginosa DR4877/07 [2]) | also measured
NC[C@H]1O[C@H](O[C@H]2[C@H](O)[C@@H](O[C@H]3O[C@H](CO)[C@@H](O)[C@H](N)[C@H]3O)[C@H](N)C[C@@H]2N)[C@H](O)[C@@H](O)[C@@H]1O [Kanamycin, reference compound] | – | 800 | 1600 | 0.75 | MIC of antibiotics (P. aeruginosa DR4877/07 [1]; antibiotic alone, MHB, 37 °C, 24 h, OD600): 3200 µg/mL; Fold decrease in the MIC of antibiotics at sub-lethal/sub-inhibitory concentrations of B2088 (P. aeruginosa DR4877/07 [2]; multidrug resistant P. aeruginosa 4877): 4 fold
